Converted amounts (≈) assume the structure as drawn. Read-outs that look alike come from different tables or passages of the source.

Series [1] can be described thus: Cell number (propidium iodide). Format: cell-based, rat. The note with it: rat. An outline of the steps: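 Rat hepatoma H4IIE cells exposed to compound in complete medium, then lysed with Triton X-100 containing propidium iodide; fluorescence read at 540/610 nm. Blank-subtracted RFU expressed as percent of untreated control cells, means of n=3-7.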
Series [2] in a line: MemTox membrane leakage (AK / α-GST). Type of series: cell-based, rat. An outline of the steps:
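Neonatal rat cardiomyocytes were dosed, and the culture medium was collected at the end of exposure to measure total leaked adenylate kinase (luminescence) and/or α-GST (ELISA, 450/650 nm). Percent dead cells was set against 1 mM digitonin as maximum release, then converted to percent live. Values are means of n=3-7.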

The nature of a further series: MTT reduction. Format: cell-based, rat. Summed up:
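Cardiomyocytes from neonatal rats were exposed to the compound and cell function was monitored by tetrazolium (MTT) dye reduction. Values are group means over n=3-7.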
Background: Formazan colour is commonly taken as a measure of viable cells.

The next series in a line: Intracellular ATP levels. Type of series: cell-based, rat. An outline of the steps: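 Neonatal rat cardiomyocytes exposed to the compound; cellular ATP measured by luciferin/luciferase luminescence after lysis with an ATPase-inhibiting reagent, quantified against an ATP calibration curve in matching matrix (pmol ATP/million cells). Background-corrected luminescence expressed as percent of control; means of n=3-7.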

Series [3] in a line: Intracellular total glutathione (GSH). Format: cell-based, rat. The note with it: rat. Summed up: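 Intracellular total glutathione serves as an oxidative-stress marker in neonatal rat cardiomyocytes exposed to compound in vitro. Cells were harvested for biochemical analysis, and values are means of each exposure group (n=3-7).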
Series [4] can be described thus: Intracellular total glutathione (GSH). Type of series: cell-based, rat. The note with it: rat. Summed up:
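Rat hepatoma H4IIE cells were exposed to compound in dosing solutions made in complete culture medium, then harvested for biochemical measurement of intracellular total glutathione as an oxidative-stress marker. Values are exposure-group means, n=3-7.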
This is another data set of the same source.

A short description of series [5]: Solubility in culture medium (nephelometry). Format: physicochemical. Here is the method: Solubility: The test compounds were prepared in DMSO and the appropriate amounts were then added to complete medium containing 10% bovine serum […] at 37° C. The samples were evaluated using a light scattering technique and a Nephaloskan instrument.
Solubility Assay: The test compounds were prepared in DMSO and the appropriate amounts were then added to complete medium containing 10% bovine serum at 37° C. The samples were evaluated using a light scattering technique and a Nephaloskan instrument.

As to `O=C1c2c(O)ccc(O)c2C(=O)c2c(NCCNCCO)ccc(NCCNCCO)c21` [MITOXANTRONE, mitoxantrone], the CC50 at 24 h in series [1] (Cell Number TC50) was less than 1 µM; in series [2] (rat) it was 2 µM; in “MTT reduction” (rat), 1 µM; in the series “Intracellular ATP levels” (rat), 2 µM; in series [3], less than 1 µM; in series [4] (Total GSH TC50), 247 µM. For the same compound, the solubility is on record as 300 µM (≈ 133 µg/mL) in series [5] (dosing medium with 20% serum, 37° C., CM 24 HR, read-out: Highest Soluble Concentration Tested) and 300 µM (≈ 133 µg/mL) in series [5] (dosing medium with 20% serum, 37° C., H4IIE 24 HR, read-out: Highest Soluble Concentration Tested).

Take `COc1cccc2c1C(=O)c1c(O)c3c(c(O)c1C2=O)C[C@@](O)(C(=O)CO)C[C@@H]3O[C@H]1C[C@H](N)[C@H](O[C@@H]2CCCCO2)[C@H](C)O1` [PIRARUBICIN, pirarubicin]: the CC50 at 24 h in series [1] (H4IIE rat hepatoma cells, H4IIE, 24 HR exposure, read-out: Cell Number TC50) amounted to 8 µM; in series [2] (neonatal rat cardiomyocytes, rat cardiomyocytes (CM), 24 HR exposure, read-out: MemTox TC50), 6 µM; in “MTT reduction” (neonatal rat cardiomyocytes, rat cardiomyocytes (CM), 24 HR exposure, read-out: MTT TC50), 7 µM; in the series “Intracellular ATP levels” (neonatal rat cardiomyocytes, rat cardiomyocytes (CM), 24 HR exposure, read-out: ATP TC50), 7 µM; in series [3] (neonatal rat cardiomyocytes, CM, 24 HR, read-out: Total GSH TC50), 6 µM; in series [4] (H4IIE rat hepatoma cells, H4IIE, 24 HR, read-out: Total GSH TC50) it was 17 µM. The solubility in series [5] (plasma or biological fluid, kinetic from dmso stock, dosing medium with 20% serum, 37° C., CM 24 HR, read-out: Highest Soluble Concentration Tested) is 50 µM (≈ 31.4 µg/mL).

In the case of `C=C(C)[C@H]1Cc2c(ccc3c2O[C@@H]2COc4cc(OC)c(OC)cc4[C@@H]2C3=O)O1` [ROTENONE, Rotenone], the CC50 at 24 h in series [1] (H4IIE, 24 HR exposure, read-out: Cell Number TC50) was 0.04 µM; in series [2] (rat cardiomyocytes (CM), 24 HR exposure, read-out: MemTox TC50), 56 µM; in “MTT reduction” (rat cardiomyocytes (CM), 24 HR exposure, read-out: MTT TC50) it was 33 µM; in “Intracellular ATP levels” (rat cardiomyocytes (CM), 24 HR exposure, read-out: ATP TC50), 8 µM; in series [3] (CM, 24 HR, read-out: Total GSH TC50), 7 µM; in series [4] (H4IIE, 24 HR, read-out: Total GSH TC50), 0.05 µM. The solubility is 10 µM (≈ 3.94 µg/mL) in series [5] (37 °C, plasma or biological fluid, kinetic from dmso stock, culture media containing 20% serum, NRK 6 HR, read-out: Highest Soluble Concentration); 10 µM (≈ 3.94 µg/mL) in series [5] (37 °C, plasma or biological fluid, kinetic from dmso stock, culture media containing 20% serum, NRK 24 HR, read-out: Highest Soluble Concentration); 100 µM (≈ 39.4 µg/mL) in series [5] (37 °C, plasma or biological fluid, kinetic from dmso stock, dosing medium with 20% serum, 37° C., CM 24 HR, read-out: Highest Soluble Concentration Tested); 100 µM (≈ 39.4 µg/mL) in series [5] (37 °C, plasma or biological fluid, kinetic from dmso stock, dosing medium with 20% serum, 37° C., H4IIE 24 HR, read-out: Highest Soluble Concentration Tested); 10 µM (≈ 3.94 µg/mL) in series [5] (37 °C, plasma or biological fluid, kinetic from dmso stock, dosing medium, 37° C., C32 24 HR, read-out: Highest Soluble Concentration); 10 µM (≈ 3.94 µg/mL) in series [5] (37 °C, plasma or biological fluid, kinetic from dmso stock, dosing medium, 37° C., HUVEC 24 HR, read-out: Highest Soluble Concentration). Besides, the solubility in series [5] (37 °C, plasma or biological fluid, kinetic from dmso stock, dosing medium, 37° C., NHEM 24 HR, read-out: Highest Soluble Concentration) amounted to 100 µM (≈ 39.4 µg/mL); in series [5] (37 °C, plasma or biological fluid, kinetic from dmso stock, dosing medium, 37° C., SK-MEL28 24 HR, run #2, read-out: Highest Soluble Concentration), 100 µM (≈ 39.4 µg/mL); in series [5] (37 °C, plasma or biological fluid, kinetic from dmso stock, dosing medium, 37° C., SK-MEL28 24 HR, read-out: Highest Soluble Concentration) it was 10 µM (≈ 3.94 µg/mL); in series [5] (37 °C, plasma or biological fluid, kinetic from dmso stock, dosing medium, 37° C., SK-MEL28 72 HR, run #2, read-out: Highest Soluble Concentration), 100 µM (≈ 39.4 µg/mL); in series [5] (37 °C, plasma or biological fluid, kinetic from dmso stock, dosing medium, 37° C., human hepatocytes 24 HR, read-out: Highest Soluble Concentration) it was 10 µM (≈ 3.94 µg/mL).

For the origin of these results see US7615361B2, “Toxicity screening methods” (Ceetox, Inc., priority 2006, dated 2009).
